Paper PMC5225172 (Cancer Chemotherapy and Pharmacology, 2016)

What was measured:
[1] = Phase I safety and tolerability: adverse events (NCI CTCAE v4.03), DLT, MTD; conditions: human, in vivo, iv
Procedure: (§1) Dosing on days 8 and 15 was permitted within a window of ±1 day if necessary, and dosing was considered missed if delayed by more than 1 day. Dose delays of up to 2 weeks were permitted for day 1 of cycle 2 or later, although for days 8 and 15 of cycle 2 and subsequent cycles, dosing within a window of ±3 days was permitted, except for in cycle 3, where dosing was to be administered within ±1 day of days 8 and 15.
(§2) Patients were enrolled into cohort 1 and were evaluated for the occurrence of a dose-limiting toxicity (DLT) as defined by the National Cancer Institute Common Terminology Criteria for Adverse Events version 4.03. […] Completion of cycle 1 in cohort 1 constituted study completion.
(§3) Protocol-defined DLTs included non-hematologic adverse events of grade ≥3. Hyperglycemia defined as a DLT was to be determined based on serum glucose values. Hematologic DLTs were defined as grade 4 neutropenia for ≥3 days, an absolute neutrophil count <1000 with fever ≥38.5 °C, and grade 4 thrombocytopenia. Patients with non-hematologic DLTs were to discontinue study treatment.
(§4) Screening comprised: provision of written, informed consent; demographics; baseline characteristics; concomitant medications; safety assessments (adverse events [defined as any new finding not present in the patient’s medical history, or a worsening of a prior medical history finding], vital signs, laboratory tests, physical examination, 12-lead electrocardiogram, multigated acquisition scan, or echocardiogram); tumor measurements by computed tomography or magnetic resonance imaging; disease assessment as defined by RECIST version 1.1; ophthalmologic examination; chest computed tomography; and ECOG PS assessment. The following assessments were also performed on cycle 1, day 1: safety; ECOG PS assessment; concomitant medications; blood samples for PK analysis; serum samples for glucose analysis; serum insulin; urinalysis; serum ketones; and post-dose echocardiogram. Safety assessments, blood pressure measurements, blood sampling for PK analysis, and urinalysis were also performed on days 8 and 15 of cycle 1.

[2] = system: Japanese patients with advanced or refractory solid tumors; test: as above
Procedure: as §1, §2, §3, §4

clinical = conditions: human, in vivo
Procedure: Additional PK samples were collected at either 72, 96, or 120 h following the start of infusion. […] Blood pressure monitoring was performed every 5 min before dosing on cycle 1, day 1 until the observation of two consecutive measurements <150 mmHg (systolic) and <90 mmHg (diastolic). […] Serum samples for glucose analysis were collected immediately before the first infusion and in parallel with PK sampling through to 49 h post-dose. Glucose samples taken at 25 h post-dose were to be fasting, where possible and if deemed safe. Capillary blood glucose testing was to be performed for hyperglycemia management as determined appropriate by the investigator; hyperglycemia was defined as capillary blood glucose >200 mg/dL and was to be treated with short-acting insulin. Tumor measurement and disease assessment according to RECIST version 1.1 were conducted every two cycles by the investigator. This study was primarily a descriptive safety and tolerability trial, and no formal sample-size estimation was performed. Summary statistics were used for demographics, baseline characteristics, and PK parameters. Frequency tables were used for categorical variables.

[3] = system: advanced solid tumors and non-Hodgkin's lymphoma; set-up: method as in PMID 27672108; conditions: cited from earlier work
class I PI3K = conditions: compared with the p110β and p110γ isoforms; cited from earlier work
[4] = system: patients with advanced solid tumors and non-Hodgkin's lymphomas; conditions: cited from earlier work

SMILES: COc1c(OCCCN2CCOCC2)ccc2c1N=C(NC(=O)c1cnc(N)nc1)N1CCN=C21 [copanlisib, Copanlisib]
- MTD at 28 days [1]: 0.8 mg/kg
- Treatment-emergent AE of all grades, irrespective of causality: Flu-like symptoms ([2]; Cohort 1, 0.4 mg/kg (n = 3)): 0 n (%)
- Treatment-emergent AE of all grades, irrespective of causality: Flu-like symptoms ([2]; Cohort 2, 0.8 mg/kg (n = 7)): 2 (28.6) n (%)
- Treatment-emergent AE of all grades, irrespective of causality: Flu-like symptoms ([2]; Total (N = 10)): 2 (20.0) n (%)
- AEs leading to permanent discontinuation of study drug ([2]; human, in vivo): 2 (20.0) n (%)
- Adverse events leading to study discontinuation ([2]; human, in vivo): 20.0%
- Any AE ([2]; human, in vivo): 10 (100) n (%)
- Any drug-related AE ([2]; human, in vivo): 10 (100) n (%)
- Any serious AE ([2]; human, in vivo): 3 (30.0) n (%)
- Grade 3 AE ([2]; human, in vivo): 5 (50.0) n (%)
- Grade 3 drug-related AE ([2]; human, in vivo): 2 (20.0) n (%)
- Grade 3 hypertension ([2]; human, in vivo): no reports of grade 3 hypertension
- Grade 4 AE ([2]; human, in vivo): 1 (10.0) n (%)
- Hematologic and biochemical toxicity event: anemia ([2]; human, in vivo): 90.0%
- Hematologic and biochemical toxicity event: hypoalbuminemia ([2]; human, in vivo): 90.0%
- Hematologic and biochemical toxicity event: lymphocytopenia ([2]; human, in vivo): 90%
- TEAE of all grades irrespective of causality: constipation ([2]; human, in vivo): 50.0%
- TEAE of all grades irrespective of causality: hyperglycemia ([2]; human, in vivo): 80.0%
- TEAEs of grade 3 as worst grade ([2]; human, in vivo): 50.0%
- TEAEs of grade 3 as worst grade considered drug-related ([2]; human, in vivo): 20.0%
- Treatment-emergent AE of all grades, irrespective of causality: Acneiform rash ([2]; human, in vivo): 3 (30.0) n (%)
- Treatment-emergent AE of all grades, irrespective of causality: Anemia ([2]; human, in vivo): 3 (30.0) n (%)
- Treatment-emergent AE of all grades, irrespective of causality: Anorexia ([2]; human, in vivo): 3 (30.0) n (%)
- Treatment-emergent AE of all grades, irrespective of causality: Constipation ([2]; human, in vivo): 5 (50.0) n (%)
- Treatment-emergent AE of all grades, irrespective of causality: Cough ([2]; human, in vivo): 2 (20.0) n (%)
- Treatment-emergent AE of all grades, irrespective of causality: Fever ([2]; human, in vivo): 4 (40.0) n (%)
- Treatment-emergent AE of all grades, irrespective of causality: Hyperglycemia ([2]; human, in vivo): 8 (80.0) n (%)
- Treatment-emergent AE of all grades, irrespective of causality: Hypertension ([2]; human, in vivo): 7 (70.0) n (%)
- Treatment-emergent AE of all grades, irrespective of causality: Increased ALP ([2]; human, in vivo): 4 (40.0) n (%)
- Treatment-emergent AE of all grades, irrespective of causality: Increased ALT ([2]; human, in vivo): 3 (30.0) n (%)
- Treatment-emergent AE of all grades, irrespective of causality: Increased AST ([2]; human, in vivo): 2 (20.0) n (%)
- Treatment-emergent AE of all grades, irrespective of causality: Insomnia ([2]; human, in vivo): 2 (20.0) n (%)
- Treatment-emergent AE of all grades, irrespective of causality: Investigations, other ([2]; human, in vivo): 4 (40.0) n (%)
- Treatment-emergent AE of all grades, irrespective of causality: Leukopenia ([2]; human, in vivo): 4 (40.0) n (%)
- Treatment-emergent AE of all grades, irrespective of causality: Lymphocytopenia ([2]; human, in vivo): 4 (40.0) n (%)
- Treatment-emergent AE of all grades, irrespective of causality: Malaise ([2]; human, in vivo): 2 (20.0) n (%)
- Treatment-emergent AE of all grades, irrespective of causality: Nausea ([2]; human, in vivo): 3 (30.0) n (%)
- Treatment-emergent AE of all grades, irrespective of causality: Neutropenia ([2]; human, in vivo): 4 (40.0) n (%)
- Treatment-emergent AE of all grades, irrespective of causality: Oral mucositis ([2]; human, in vivo): 2 (20.0) n (%)
- Treatment-emergent AE of all grades, irrespective of causality: Pruritus ([2]; human, in vivo): 2 (20.0) n (%)
- Treatment-emergent AE of all grades, irrespective of causality: Tumor pain ([2]; human, in vivo): 4 (40.0) n (%)
- AEs leading to dose modification ([2]; human, in vivo, 28 days): 1 (33.3) n (%)
- Patients with dose-limiting toxicity (DLT) ([2]; human, in vivo, 28 days): No patients treated at 0.4 mg/kg experienced a dose-limiting toxicity
- Cases of colitis ([2]; in vivo): no cases of colitis
- Deaths on study ([2]; in vivo): No deaths on study were reported
- Hematologic and biochemical toxicity event: hyperglycemia ([2]; in vivo): all ten patients
- Hematologic and biochemical toxicity event: increased creatinine ([2]; in vivo): all ten patients
- Patients with dose-limiting toxicity (DLT) ([2]; in vivo): No patients experienced DLTs
- Patients with grade ≥3 elevated aminotransferase levels ([2]; in vivo): Two patients
- Relationship to study drug: grade 3 Anemia ([2]; in vivo): Not likely to be related
- Relationship to study drug: grade 3 Diarrhea ([2]; in vivo): Possibly related
- Relationship to study drug: grade 3 Hepatobiliary disorder ([2]; in vivo): Not likely to be related
- Relationship to study drug: grade 3 Hyperglycemia ([2]; in vivo): Possibly related
- Relationship to study drug: grade 3 Increased ALP ([2]; in vivo): Not likely to be related
- Relationship to study drug: grade 3 Increased ALT ([2]; in vivo): Not likely to be related
- Relationship to study drug: grade 3 Insomnia ([2]; in vivo): Not likely to be related
- Relationship to study drug: grade 3 Lymphocytopenia ([2]; in vivo): Possibly related
- Relationship to study drug: grade 3 Stroke ([2]; in vivo): Not likely to be related
- Relationship to study drug: grade 4 Increased AST ([2]; in vivo): Not likely to be related
- Grade 5 adverse events ([2]; irrespective of causality): No grade 5 adverse events were reported
- half-life (clinical; 0.4 mg/kg, Geometric mean terminal half-life): ~32 h
- half-life (clinical; 0.8 mg/kg, Geometric mean terminal half-life): ~36 h
- half-life (clinical; 0.8 mg/kg, Plasma half-life): 32 to 36 h
- AUC (clinical; iv, 0.4 mg/kg): 1400 ng·h/mL
- AUC(0-t) (clinical; iv, 0.4 mg/kg, AUC(0–8)): 483 ng·h/mL
- AUC(0-t) (clinical; iv, 0.4 mg/kg, AUC(0–25)): 789 ng·h/mL
- Cmax (clinical; iv, 0.4 mg/kg, C max): 215 ng/mL
- half-life (clinical; iv, 0.4 mg/kg, t 1/2 (half-life associated with terminal slope)): 32.2 h
- Tmax (clinical; iv, 0.4 mg/kg, tmax): 1.02 h
- AUC (clinical; iv, 0.8 mg/kg): 2350 ng·h/mL
- AUC(0–25) (clinical; iv, 0.8 mg/kg): 1290 (10.1) µg·h/L
- Tmax (clinical; iv, 0.8 mg/kg): 0.75 [0.48-1.05] h
- AUC(0-t) (clinical; iv, 0.8 mg/kg, AUC(0–8)): 812 ng·h/mL
- AUC(0-t) (clinical; iv, 0.8 mg/kg, AUC(0–25)): 1280 ng·h/mL
- half-life (clinical; iv, 0.8 mg/kg, t1/2 (half-life associated with terminal slope)): 35.6 h
- Tmax (clinical; iv, 0.8 mg/kg, tmax): 0.53 h
- Objective response rate ([3]; 25 patients in solid-tumor expansion cohort treated at the MTD): 12%
- Disease control rate ([3]; advanced solid-tumor expansion cohort): 44%
- Antitumor activity in patients with non-Hodgkin's lymphoma ([3]; first-in-human study): seven out of nine patients
- PI3K isoform preference (class I PI3K): preferential activity against the p110α and p110δ isoforms of PI3K
- Grade 3 hypertension ([4]; Patnaik et al. study): 19%
- Incidence of all-grade hypertension ([4]; Patnaik et al. study): 30%
- Maximum tolerated dose (MTD) ([4]; first-in-human Phase I study, non-Japanese patients, once weekly): 0.8 mg/kg
- Patients with grade ≥3 elevated aminotransferase levels ([4]; first-in-human study): < 10%
- Time of hyperglycemia peak after the start of infusion ([4]; first-in-human study): 5 to 8 h
- Time of hypertension peak after the start of infusion ([4]; first-in-human study): 1 to 2 h
